Assay results published in patent publication US20140017721A1 (The Research Foundation of State University of New York, priority 2012, published 2014).

Test system: prostate cancer cells (parental PPT2, primary tumor-derived)
Assay: Cytotoxic drug treatment of parental primary prostate cancer cells under stemness-promoting culture
Type: cell-based, human
Conditions: 0.1-3 μM concentrations; FIG. 1C
Description: Initially, the isolated fast adherent cells represented a mixture of a majority of tumor-associated fibrocytes with a minor population of large cancer cells (FIG. 1A).

With CC(=O)O[C@@]12CO[C@@H]1C[C@H](O)[C@@]1(C)C(=O)[C@H](OC(=O)C3CC3)C3=C(C)[C@@H](OC(=O)[C@H](O)[C@H](C=C(C)C)NC(=O)OC(C)(C)C)C[C@@](O)([C@@H](OC(=O)c4ccccc4)[C@H]21)C3(C)C [SBT-1214] the “enrichment of multinucleated gigantic cells (highly drug resistant type of CSCs)” value was “significant enrichment and visualization of the multinucleated gigantic cells”.

CC(=O)O[C@H]1C(=O)[C@@]2(C)[C@H]([C@H](OC(=O)c3ccccc3)[C@]3(O)C[C@H](OC(=O)[C@H](O)[C@@H](NC(=O)c4ccccc4)c4ccccc4)C(C)=C1C3(C)C)[C@]1(OC(C)=O)CO[C@@H]1C[C@@H]2O [Taxol] was tested, and the “enrichment of multinucleated gigantic cells (highly drug resistant type of CSCs)” value was “significant enrichment and visualization of the multinucleated gigantic cells”.
